Active and inactive are the calls of the source.
How the values were obtained:
[1] = molecular target: T1, Sphingosine 1-phosphate receptor 2 (Homo sapiens, UniProt O95136); assay: Dose Response Cell Based Assay for Antagonists of the S1P2 Receptor. [Related pubchem assays: 856, 736 ]; type: functional
[2] = molecular target: T2, Neuropeptide Y receptor type 2 (Homo sapiens, UniProt P49146); assay: IC50 for human NPY-Y2 blockade – cell-based, counter-screen for NPY-Y1 antagonist project, dose response (AID 1278); type: functional
T2 sequence (P49146 whole entry): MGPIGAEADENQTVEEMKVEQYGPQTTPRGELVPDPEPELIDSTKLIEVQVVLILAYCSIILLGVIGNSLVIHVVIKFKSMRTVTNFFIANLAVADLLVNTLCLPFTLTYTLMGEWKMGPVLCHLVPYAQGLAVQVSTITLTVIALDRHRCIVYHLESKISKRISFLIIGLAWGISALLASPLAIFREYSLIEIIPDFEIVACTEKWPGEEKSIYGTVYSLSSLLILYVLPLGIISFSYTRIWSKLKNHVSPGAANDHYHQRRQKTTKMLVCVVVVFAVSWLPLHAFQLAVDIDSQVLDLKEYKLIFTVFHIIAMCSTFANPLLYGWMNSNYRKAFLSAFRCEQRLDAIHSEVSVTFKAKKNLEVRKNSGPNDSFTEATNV

[3] = molecular target: T3, Neuropeptide Y receptor type 1 (Homo sapiens, UniProt P25929); assay: IC50 of human NPY-Y1 blockers – cell-based, dose response (AID 1277); type: functional
T3 sequence (P25929 whole entry): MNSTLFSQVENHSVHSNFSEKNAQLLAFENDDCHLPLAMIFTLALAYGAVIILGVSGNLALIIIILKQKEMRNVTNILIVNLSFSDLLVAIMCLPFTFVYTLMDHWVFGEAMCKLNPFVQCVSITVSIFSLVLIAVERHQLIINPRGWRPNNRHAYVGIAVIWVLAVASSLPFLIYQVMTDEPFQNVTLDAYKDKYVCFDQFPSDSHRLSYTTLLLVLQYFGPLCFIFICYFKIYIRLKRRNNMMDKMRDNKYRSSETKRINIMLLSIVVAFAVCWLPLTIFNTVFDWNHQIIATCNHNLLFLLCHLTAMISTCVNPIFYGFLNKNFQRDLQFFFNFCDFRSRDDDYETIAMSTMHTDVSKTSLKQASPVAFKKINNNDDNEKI

[4] = reduction of Shn3 3'UTR-driven luciferase in osteoblasts – cell-based, Clone20 osteoblasts, firefly luciferase, cherry-picked, dose response (AID 624132); type: functional;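 further: firefly luciferase luminescence from reporter carrying the Shn3 3'UTR in osteoblasts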
[5] = loss of viability in HepG2 cells – cell-based, CellTiter-Glo, cherry-picked, cytotoxicity control for Shn3 inhibitor project, dose response (AID 624134); type: functional
[6] = non-specific 3'UTR reporter inhibition in Clone20-Shn3RL – cell-based, Renilla luciferase, cherry-picked, counter-screen for Shn3 inhibitor project, dose response (AID 624133); type: functional
Cytochrome P450 2C19 = Cytochrome P450 2C19 (Homo sapiens, UniProt P33261); assay: qHTS Assay for Inhibitors and Substrates of Cytochrome P450 2C19. [Related pubchem assays: 410 ]; type: ADME; settings: read-out: Potency
Sequence of Cytochrome P450 2C19 (P33261 whole entry): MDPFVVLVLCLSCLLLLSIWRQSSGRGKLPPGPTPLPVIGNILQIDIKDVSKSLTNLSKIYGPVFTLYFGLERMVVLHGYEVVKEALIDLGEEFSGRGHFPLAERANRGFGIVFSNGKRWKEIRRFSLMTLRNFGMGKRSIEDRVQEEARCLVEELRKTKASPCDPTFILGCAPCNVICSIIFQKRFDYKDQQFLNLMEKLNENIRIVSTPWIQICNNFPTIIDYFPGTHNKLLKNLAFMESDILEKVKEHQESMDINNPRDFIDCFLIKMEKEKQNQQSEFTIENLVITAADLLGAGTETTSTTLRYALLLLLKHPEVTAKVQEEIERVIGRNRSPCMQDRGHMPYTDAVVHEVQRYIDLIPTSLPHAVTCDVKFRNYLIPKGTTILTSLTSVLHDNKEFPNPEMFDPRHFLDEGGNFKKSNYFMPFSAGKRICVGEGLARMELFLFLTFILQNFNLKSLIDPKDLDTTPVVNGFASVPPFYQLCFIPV

Vero = assay: inhibition of WNV-induced cytopathic effect – cell-based, CPE readout (AID 1621); type: functional; settings: Chlorocebus sabaeus
[7] = viability loss in HeLa cells – cytotoxicity control for MgcRacGAP inhibitor project, dose response (AID 624300); type: functional
[8] = molecular target: T4, Rac GTPase-activating protein 1 (Homo sapiens, UniProt Q9H0H5); assay: blockers of MgcRacGAP-driven Rac1 GTP hydrolysis – biochemical, ADP Hunter fluorescence, primary and confirmatory, confirmation (AID 624330); type: functional
T4 sequence (Q9H0H5 whole entry): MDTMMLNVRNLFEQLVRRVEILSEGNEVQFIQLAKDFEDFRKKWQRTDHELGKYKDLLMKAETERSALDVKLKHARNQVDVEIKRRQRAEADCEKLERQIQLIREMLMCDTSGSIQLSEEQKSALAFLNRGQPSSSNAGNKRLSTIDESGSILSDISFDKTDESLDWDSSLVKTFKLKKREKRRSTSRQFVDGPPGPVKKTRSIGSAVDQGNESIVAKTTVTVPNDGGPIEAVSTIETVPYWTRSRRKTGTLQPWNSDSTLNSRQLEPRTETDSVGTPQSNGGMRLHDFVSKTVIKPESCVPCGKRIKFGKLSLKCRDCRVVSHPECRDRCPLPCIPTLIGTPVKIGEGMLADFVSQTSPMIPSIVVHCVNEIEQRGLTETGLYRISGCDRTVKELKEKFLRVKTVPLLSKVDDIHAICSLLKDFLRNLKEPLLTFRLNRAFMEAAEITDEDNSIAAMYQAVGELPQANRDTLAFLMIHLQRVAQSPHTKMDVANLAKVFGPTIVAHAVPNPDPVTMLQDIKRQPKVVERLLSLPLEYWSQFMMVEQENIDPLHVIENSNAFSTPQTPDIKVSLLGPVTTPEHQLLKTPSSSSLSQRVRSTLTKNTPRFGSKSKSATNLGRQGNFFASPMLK

14-3-3 protein gamma = 14-3-3 protein gamma (Homo sapiens, UniProt P61981); assay: modulators of 14-3-3 gamma client binding – dose response (AID 711); type: functional
Sequence of 14-3-3 protein gamma (P61981 whole entry): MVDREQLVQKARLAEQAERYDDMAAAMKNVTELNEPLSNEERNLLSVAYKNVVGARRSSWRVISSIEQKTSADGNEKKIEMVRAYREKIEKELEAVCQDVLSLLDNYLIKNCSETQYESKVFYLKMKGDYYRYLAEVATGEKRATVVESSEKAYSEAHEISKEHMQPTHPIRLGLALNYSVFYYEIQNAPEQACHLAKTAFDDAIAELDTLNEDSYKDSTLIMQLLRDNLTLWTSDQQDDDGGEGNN

[9] = molecular target: T1, Sphingosine 1-phosphate receptor 2; assay: Dose Response Cell Based Assay for Agonists of the S1P2 Receptor of Purchased Analogues. [Related pubchem assays: 729, 843, 854, 736 ]; type: functional
[10] = molecular target: Diphosphomevalonate decarboxylase (Streptococcus pneumoniae serotype 2 (strain D39 / NCTC 7466), UniProt Q9FD53); assay: diphosphomevalonate decarboxylase inhibitor confirmation – biochemical, cuvette format, coupled NADH fluorescence (AID 1028); type: functional
Sequence of Diphosphomevalonate decarboxylase (Q9FD53 whole entry): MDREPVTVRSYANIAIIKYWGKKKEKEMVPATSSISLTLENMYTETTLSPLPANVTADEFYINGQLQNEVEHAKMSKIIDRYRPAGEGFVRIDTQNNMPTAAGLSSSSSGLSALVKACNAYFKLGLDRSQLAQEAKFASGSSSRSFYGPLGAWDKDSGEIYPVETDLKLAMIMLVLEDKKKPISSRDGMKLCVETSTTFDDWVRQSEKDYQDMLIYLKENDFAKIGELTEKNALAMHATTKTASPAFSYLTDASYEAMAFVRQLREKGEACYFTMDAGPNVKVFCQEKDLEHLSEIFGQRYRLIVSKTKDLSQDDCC

[11] = molecular target: Epstein-Barr nuclear antigen 1 (Epstein-Barr virus (strain B95-8) (HHV-4) (Human herpesvirus 4), UniProt P03211); assay: inhibition of EBV nuclear antigen 1 DNA binding – biochemical, fluorescence polarization, 1536-well, dose response (AID 2381); design: species or system human gammaherpesvirus 4;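 further: fluorescence polarization of a Cy5 DNA probe bound by EBNA-1 protein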
Sequence of Epstein-Barr nuclear antigen 1 (P03211 whole entry): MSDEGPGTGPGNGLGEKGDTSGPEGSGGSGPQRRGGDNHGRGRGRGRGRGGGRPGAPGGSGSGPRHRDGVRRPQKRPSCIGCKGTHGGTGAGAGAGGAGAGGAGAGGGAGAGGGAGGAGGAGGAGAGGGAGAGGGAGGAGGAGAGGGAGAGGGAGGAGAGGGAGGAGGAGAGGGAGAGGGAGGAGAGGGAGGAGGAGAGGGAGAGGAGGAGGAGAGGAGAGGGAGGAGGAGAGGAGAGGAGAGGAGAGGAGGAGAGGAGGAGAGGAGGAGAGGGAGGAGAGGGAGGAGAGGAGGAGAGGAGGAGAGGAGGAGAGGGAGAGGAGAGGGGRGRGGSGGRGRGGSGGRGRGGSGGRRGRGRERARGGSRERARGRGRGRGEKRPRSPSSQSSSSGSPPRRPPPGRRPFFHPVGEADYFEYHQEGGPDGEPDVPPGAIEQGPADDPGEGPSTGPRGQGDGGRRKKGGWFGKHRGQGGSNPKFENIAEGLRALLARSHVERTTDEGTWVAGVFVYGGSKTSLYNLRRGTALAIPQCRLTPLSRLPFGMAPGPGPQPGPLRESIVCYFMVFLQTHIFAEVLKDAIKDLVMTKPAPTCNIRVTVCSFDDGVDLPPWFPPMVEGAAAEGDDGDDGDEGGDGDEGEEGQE

[12] = molecular target: Lytic switch protein BZLF1 (Epstein-Barr virus (strain B95-8) (HHV-4) (Human herpesvirus 4), UniProt P03206); assay: inhibition of BZLF1 ZTA DNA binding – biochemical, fluorescence polarization, Epstein-Barr virus, 1536-well, counter-screen for EBNA-1 inhibitor project, dose response (AID 2377); design: species or system human gammaherpesvirus 4;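 further: fluorescence polarization of Cy5-labelled ZRE DNA probe bound by purified Zta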
Sequence of Lytic switch protein BZLF1 (P03206 whole entry): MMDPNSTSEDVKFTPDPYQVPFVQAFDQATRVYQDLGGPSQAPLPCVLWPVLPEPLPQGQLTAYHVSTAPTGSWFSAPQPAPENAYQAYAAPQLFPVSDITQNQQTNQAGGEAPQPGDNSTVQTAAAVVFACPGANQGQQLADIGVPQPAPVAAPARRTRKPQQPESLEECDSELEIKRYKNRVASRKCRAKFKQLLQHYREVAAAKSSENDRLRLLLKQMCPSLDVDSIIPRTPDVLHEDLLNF

NADPH oxidase 1 = NADPH oxidase 1 (Homo sapiens, UniProt Q9Y5S8); assay: Late-stage luminescence-based cell-based dose response assay to identify inhibitors of NADPH oxidase 1 (NOX1): Synthesized analogs 3.; type: functional
Sequence of NADPH oxidase 1 (Q9Y5S8 whole entry): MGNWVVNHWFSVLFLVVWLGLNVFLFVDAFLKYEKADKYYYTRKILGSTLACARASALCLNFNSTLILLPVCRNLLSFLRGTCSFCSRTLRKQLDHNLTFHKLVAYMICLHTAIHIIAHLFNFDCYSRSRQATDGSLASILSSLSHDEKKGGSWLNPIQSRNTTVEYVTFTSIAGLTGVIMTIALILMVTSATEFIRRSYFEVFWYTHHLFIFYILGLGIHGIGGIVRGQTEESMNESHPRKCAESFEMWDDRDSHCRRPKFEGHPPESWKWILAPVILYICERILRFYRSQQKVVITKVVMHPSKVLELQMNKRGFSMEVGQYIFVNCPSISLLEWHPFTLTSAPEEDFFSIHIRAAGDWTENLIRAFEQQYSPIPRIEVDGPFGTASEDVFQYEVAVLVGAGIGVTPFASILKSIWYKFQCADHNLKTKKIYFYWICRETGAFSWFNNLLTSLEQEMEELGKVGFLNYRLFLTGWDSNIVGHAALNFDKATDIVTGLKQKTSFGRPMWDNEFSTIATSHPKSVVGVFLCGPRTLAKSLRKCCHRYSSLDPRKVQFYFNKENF

[13] = molecular target: Mitogen-activated protein kinase 10 (Homo sapiens, UniProt P53779); assay: Dose response biochemical screening assay for inhibitors of c-Jun N-Terminal Kinase 3 (JNK3). [Related pubchem assays: 746 ]
Sequence of Mitogen-activated protein kinase 10 (P53779 whole entry): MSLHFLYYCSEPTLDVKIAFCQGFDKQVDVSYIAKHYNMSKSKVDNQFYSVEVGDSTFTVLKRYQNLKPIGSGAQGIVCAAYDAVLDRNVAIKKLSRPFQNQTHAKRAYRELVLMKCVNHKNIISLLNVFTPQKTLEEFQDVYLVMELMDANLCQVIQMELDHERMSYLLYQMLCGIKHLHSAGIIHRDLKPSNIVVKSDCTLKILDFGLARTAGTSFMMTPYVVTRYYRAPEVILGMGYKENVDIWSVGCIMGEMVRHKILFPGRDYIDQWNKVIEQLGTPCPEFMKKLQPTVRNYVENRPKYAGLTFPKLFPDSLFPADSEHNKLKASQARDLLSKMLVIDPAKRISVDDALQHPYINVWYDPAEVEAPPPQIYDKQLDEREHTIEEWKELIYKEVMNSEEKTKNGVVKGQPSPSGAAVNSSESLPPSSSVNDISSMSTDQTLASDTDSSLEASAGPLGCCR

Prothrombin = Prothrombin (Homo sapiens, UniProt P00734); assay: Thrombin 1536 HTS Dose Response Confirmation. [Related pubchem assays: 1046 (Thrombin 1536 HTS; hits were confirmed in this assay)]; type: functional
Coagulation factor XII = molecular target: T5, Coagulation factor XII (Homo sapiens, UniProt P00748); type: functional;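 further: activated factor XIIa alpha cleaving a fluorogenic AMC peptide substrate; inhibitor potency from loss of enzyme activity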
T5 sequence (P00748 whole entry): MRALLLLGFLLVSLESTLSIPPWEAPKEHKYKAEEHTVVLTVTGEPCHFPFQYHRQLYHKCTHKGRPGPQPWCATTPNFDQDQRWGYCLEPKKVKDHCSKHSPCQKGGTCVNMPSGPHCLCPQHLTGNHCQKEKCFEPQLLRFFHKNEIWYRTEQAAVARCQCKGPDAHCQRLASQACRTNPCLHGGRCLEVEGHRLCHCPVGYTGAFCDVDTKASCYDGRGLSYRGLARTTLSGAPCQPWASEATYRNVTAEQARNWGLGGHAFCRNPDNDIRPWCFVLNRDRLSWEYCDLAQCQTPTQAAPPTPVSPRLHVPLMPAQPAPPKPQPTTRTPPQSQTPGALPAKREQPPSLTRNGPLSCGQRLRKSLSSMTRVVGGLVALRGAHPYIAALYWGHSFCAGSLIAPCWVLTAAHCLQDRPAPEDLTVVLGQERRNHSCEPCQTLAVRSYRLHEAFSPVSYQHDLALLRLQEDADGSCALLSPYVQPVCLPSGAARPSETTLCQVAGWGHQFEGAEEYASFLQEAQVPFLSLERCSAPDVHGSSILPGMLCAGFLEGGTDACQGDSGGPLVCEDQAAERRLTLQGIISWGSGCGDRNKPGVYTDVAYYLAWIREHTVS

T1 sequence (O95136 whole entry): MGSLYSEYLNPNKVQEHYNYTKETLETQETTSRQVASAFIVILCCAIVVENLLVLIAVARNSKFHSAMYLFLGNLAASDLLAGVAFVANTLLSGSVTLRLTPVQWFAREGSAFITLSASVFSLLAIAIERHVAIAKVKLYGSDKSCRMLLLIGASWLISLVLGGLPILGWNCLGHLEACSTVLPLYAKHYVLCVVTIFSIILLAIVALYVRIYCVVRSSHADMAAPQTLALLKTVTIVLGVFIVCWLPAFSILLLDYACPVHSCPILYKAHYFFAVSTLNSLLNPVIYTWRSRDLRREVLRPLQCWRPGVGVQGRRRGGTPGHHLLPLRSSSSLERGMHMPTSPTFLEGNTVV

CCN(C(=O)c1ccc(C(C)(C)C)cc1)c1nnc(Cn2nnc3ccccc32)s1
IC50 [1]: 83.8 µM (not active) | IC50 [2]: 7.74 µM (active) | IC50 [3]: 3.21 µM (active) | AC50 [4]: 1.35 µM (active) | AC50 [5]: 1.55 µM (active) | AC50 [6]: 2 µM (active)

CNc1ccccc1C(=O)OCC(=O)c1ccccc1
AC50 (Cytochrome P450 2C19): 2 µM (inconclusive)

CCOC(=O)c1c(NC(=O)CN(C)C2CCN(C)CC2)sc(C(=O)Nc2ccccc2)c1C
IC50 (Vero): 24.3 µM (active) | CC50 [7]: 100 µM (active) | IC50 [8]: 76.9 µM (active)

COc1ccc(OC)c(NC(=O)CCN2CCCC(C)C2)c1 (centres undefined)
IC50 (14-3-3 protein gamma): > 50 µM (not active)

Cc1cc(C(=O)CN(C)Cc2ccco2)c(C)n1Cc1ccccc1
EC50 [9]: > 30 µM (not active)

O=C(NCc1ccccc1)c1ccccc1-n1sc2ccccc2c1=O
IC50 [10]: 12.4 µM (active)

COCCCNC(=O)c1c(N)n(-c2ccc(S(N)(=O)=O)cc2)c2nc3ccccc3nc12
IC50 [11]: > 5.47 µM (active) | IC50 [12]: > 111 µM (not active)

CN1c2ccc(Br)cc2Sc2cc(C(=O)c3ccc(N=[N+]=[N-])cc3)ccc21
IC50 (NADPH oxidase 1): 13.7 µM (active)

CS(=O)(=O)N1CCN(c2ccccc2NC(=O)Cc2ccccc2)CC1
IC50 [13]: 68.8 µM (not active)

COc1ccc(/C=N/NC(=O)c2sc3nc(C)cc(C)c3c2N)cc1
IC50 (Prothrombin): > 50 µM (not active) | IC50 (Coagulation factor XII): > 50 µM (inactive)
